Data as given in the NIST ThermoML archive (doi:10.1021/je030141r).
± gives the expanded uncertainty stated by the source.

Columns and labels:
[1] = Liquid; for mass density: 101.33 kPa
[2] = refractive index (Na D-line) (dimensionless); settings: 101.33 kPa, Liquid, Standard Abbe refractometry

Row | mass density ([1]; 298.15 K) [kg/m3] | refractive index ([2]; 298.15 K) | Compound | also measured
1 | 798 ± 2 | 1.3939 ± 0.0012 | CC(C)CO [2-methyl-1-propanol] | vapor or sublimation pressure ([1]; 379.65 K): 95.8 ± 19 kPa
2 | 805.8 ± 2.4 | 1.3974 ± 0.0012 | CCCCO [butan-1-ol] | vapor or sublimation pressure ([1]; 389.45 K): 95.8 ± 9.6 kPa
3 | 802.4 ± 2.4 | 1.3953 ± 0.0012 | CCC(C)O (centres undefined) [butan-2-ol] | vapor or sublimation pressure ([1]; 371.35 K): 95.8 ± 9.6 kPa
4 | 781.2 ± 2.3 | 1.385 ± 0.001 | CC(C)(C)O [2-methylpropan-2-ol] | vapor or sublimation pressure ([1]; 354.15 K): 95.8 ± 9.6 kPa

The remaining lines, values behind:

Row | Compound | mass density ([1]; 298.15 K) [kg/m3] | refractive index ([2]; 298.15 K) | also measured
5 | CCC(C)CO (centres undefined) [2-methyl-1-butanol] | 815 ± 2.5 | 1.4084 ± 0.0008 | vapor or sublimation pressure ([1]; 400.35 K): 95.8 ± 9.7 kPa
6 | ClC(Cl)C(Cl)Cl [1,1,2,2-tetrachloroethane] | 1586.7 ± 4.9 | 1.4914 ± 0.0012 | vapor or sublimation pressure ([1]; 417.35 K): 95.8 ± 9.7 kPa; vapor or sublimation pressure ([1]; 417.45 K): 95.8 ± 9.7 kPa
7 | CC(Cl)(Cl)Cl [1,1,1-trichloroethane] | 1329.9 ± 4.1 | 1.4359 ± 0.0012 | vapor or sublimation pressure ([1]; 345.65 K): 95.8 ± 9.6 kPa
8 | ClC(Cl)=C(Cl)Cl [tetrachloroethene] | 1614.3 ± 5 | 1.5032 ± 0.0012 | vapor or sublimation pressure ([1]; 392.25 K): 95.8 ± 9.6 kPa
9 | C1CCCCC1 [cyclohexane] | 773.9 ± 2.3 | 1.4235 ± 0.0012 | vapor or sublimation pressure ([1]; 351.75 K): 94.6 ± 9.5 kPa
10 | C1CCOC1 [tetrahydrofuran] | – | – | mass density ([1]; 293.15 K): 889.2 ± 2.7 kg/m3; vapor or sublimation pressure ([1]; 337.15 K): 94.6 ± 9.5 kPa; vapor or sublimation pressure ([1]; 337.55 K): 95.8 ± 9.6 kPa; refractive index ([2]; 293.15 K): 1.4072 ± 0.0012
11 | ClCCCl [1,2-dichloroethane] | 1246.4 ± 3.8 | 1.4421 ± 0.0012 | vapor or sublimation pressure ([1]; 355.25 K): 95.8 ± 9.6 kPa
12 | CCC(C)=O [butanone] | 799.7 ± 2.4 | 1.3769 ± 0.0012 | vapor or sublimation pressure ([1]; 350.75 K): 94.6 ± 19 kPa
13 | ClC=C(Cl)Cl [trichloroethene] | – | 1.475 ± 0.001 | mass density ([1]; 303.15 K): 1451.4 ± 4.5 kg/m3; vapor or sublimation pressure ([1]; 357.95 K): 95.8 ± 9.6 kPa
14 | CCCCCCC [heptane] | 679.5 ± 2 | 1.3851 ± 0.0012 | vapor or sublimation pressure ([1]; 369.35 K): 94.6 ± 9.5 kPa
